Patent US8410112B2, “Compounds useful as inhibitors of ATR kinase” (Vertex Pharmaceuticals Incorporated, priority 2008, dated 2013)

target: T1, full-length ATR (Homo sapiens, UniProt Q13535); experiment: ATR Inhibition Assay (radioactive-phosphate incorporation); assay type: biochemical; settings: Ki(app); 5 nM full-length ATR, 10 μM ATP, 800 μM target peptide, 25° C.
T1 construct: in the presence of 5 nM full-length ATR
Description: Test compounds were screened for their ability to inhibit ATR kinase using a radioactive-phosphate incorporation assay. Assays were carried out in a mixture of 50 mM
Tris/HCl (pH 7.5), 10 mM MgCl2 and 1 mM DTT. Final substrate concentrations were 10 μM [γ-33P]ATP (3 mCi 33 P ATP/mmol ATP, Perkin Elmer) and 800 μM target peptide ([…]). Assays were carried out at 25° C. in the presence of 5 nM full-length ATR. An assay stock buffer solution was prepared containing all of the reagents listed above, with the exception of ATP and the test compound of interest. […] The plate was pre-incubated for 10 minutes at 25° C. and the reaction initiated by addition of 15 μL [γ-33P]ATP (final concentration 10 μM).
The reaction was stopped after […] by the addition of 30 μL 0.1M phosphoric acid containing 2 mM ATP. A multiscreen phosphocellulose filter 96-well plate (Millipore, Cat no. MAPHN0B50) was pretreated with 100 μL 0.2M phosphoric acid prior to the addition of 45 μL of the stopped assay mixture. The plate was washed with 5×200 μL 0.2M phosphoric acid.
After removing mean background values for all of the data points, Ki(app) data were calculated from non-linear regression analysis of the initial rate data using the Prism software package (GraphPad Prism version 3.0cx for Macintosh, GraphPad Software, San Diego Calif., USA).

T1 sequence (Q13535 whole entry): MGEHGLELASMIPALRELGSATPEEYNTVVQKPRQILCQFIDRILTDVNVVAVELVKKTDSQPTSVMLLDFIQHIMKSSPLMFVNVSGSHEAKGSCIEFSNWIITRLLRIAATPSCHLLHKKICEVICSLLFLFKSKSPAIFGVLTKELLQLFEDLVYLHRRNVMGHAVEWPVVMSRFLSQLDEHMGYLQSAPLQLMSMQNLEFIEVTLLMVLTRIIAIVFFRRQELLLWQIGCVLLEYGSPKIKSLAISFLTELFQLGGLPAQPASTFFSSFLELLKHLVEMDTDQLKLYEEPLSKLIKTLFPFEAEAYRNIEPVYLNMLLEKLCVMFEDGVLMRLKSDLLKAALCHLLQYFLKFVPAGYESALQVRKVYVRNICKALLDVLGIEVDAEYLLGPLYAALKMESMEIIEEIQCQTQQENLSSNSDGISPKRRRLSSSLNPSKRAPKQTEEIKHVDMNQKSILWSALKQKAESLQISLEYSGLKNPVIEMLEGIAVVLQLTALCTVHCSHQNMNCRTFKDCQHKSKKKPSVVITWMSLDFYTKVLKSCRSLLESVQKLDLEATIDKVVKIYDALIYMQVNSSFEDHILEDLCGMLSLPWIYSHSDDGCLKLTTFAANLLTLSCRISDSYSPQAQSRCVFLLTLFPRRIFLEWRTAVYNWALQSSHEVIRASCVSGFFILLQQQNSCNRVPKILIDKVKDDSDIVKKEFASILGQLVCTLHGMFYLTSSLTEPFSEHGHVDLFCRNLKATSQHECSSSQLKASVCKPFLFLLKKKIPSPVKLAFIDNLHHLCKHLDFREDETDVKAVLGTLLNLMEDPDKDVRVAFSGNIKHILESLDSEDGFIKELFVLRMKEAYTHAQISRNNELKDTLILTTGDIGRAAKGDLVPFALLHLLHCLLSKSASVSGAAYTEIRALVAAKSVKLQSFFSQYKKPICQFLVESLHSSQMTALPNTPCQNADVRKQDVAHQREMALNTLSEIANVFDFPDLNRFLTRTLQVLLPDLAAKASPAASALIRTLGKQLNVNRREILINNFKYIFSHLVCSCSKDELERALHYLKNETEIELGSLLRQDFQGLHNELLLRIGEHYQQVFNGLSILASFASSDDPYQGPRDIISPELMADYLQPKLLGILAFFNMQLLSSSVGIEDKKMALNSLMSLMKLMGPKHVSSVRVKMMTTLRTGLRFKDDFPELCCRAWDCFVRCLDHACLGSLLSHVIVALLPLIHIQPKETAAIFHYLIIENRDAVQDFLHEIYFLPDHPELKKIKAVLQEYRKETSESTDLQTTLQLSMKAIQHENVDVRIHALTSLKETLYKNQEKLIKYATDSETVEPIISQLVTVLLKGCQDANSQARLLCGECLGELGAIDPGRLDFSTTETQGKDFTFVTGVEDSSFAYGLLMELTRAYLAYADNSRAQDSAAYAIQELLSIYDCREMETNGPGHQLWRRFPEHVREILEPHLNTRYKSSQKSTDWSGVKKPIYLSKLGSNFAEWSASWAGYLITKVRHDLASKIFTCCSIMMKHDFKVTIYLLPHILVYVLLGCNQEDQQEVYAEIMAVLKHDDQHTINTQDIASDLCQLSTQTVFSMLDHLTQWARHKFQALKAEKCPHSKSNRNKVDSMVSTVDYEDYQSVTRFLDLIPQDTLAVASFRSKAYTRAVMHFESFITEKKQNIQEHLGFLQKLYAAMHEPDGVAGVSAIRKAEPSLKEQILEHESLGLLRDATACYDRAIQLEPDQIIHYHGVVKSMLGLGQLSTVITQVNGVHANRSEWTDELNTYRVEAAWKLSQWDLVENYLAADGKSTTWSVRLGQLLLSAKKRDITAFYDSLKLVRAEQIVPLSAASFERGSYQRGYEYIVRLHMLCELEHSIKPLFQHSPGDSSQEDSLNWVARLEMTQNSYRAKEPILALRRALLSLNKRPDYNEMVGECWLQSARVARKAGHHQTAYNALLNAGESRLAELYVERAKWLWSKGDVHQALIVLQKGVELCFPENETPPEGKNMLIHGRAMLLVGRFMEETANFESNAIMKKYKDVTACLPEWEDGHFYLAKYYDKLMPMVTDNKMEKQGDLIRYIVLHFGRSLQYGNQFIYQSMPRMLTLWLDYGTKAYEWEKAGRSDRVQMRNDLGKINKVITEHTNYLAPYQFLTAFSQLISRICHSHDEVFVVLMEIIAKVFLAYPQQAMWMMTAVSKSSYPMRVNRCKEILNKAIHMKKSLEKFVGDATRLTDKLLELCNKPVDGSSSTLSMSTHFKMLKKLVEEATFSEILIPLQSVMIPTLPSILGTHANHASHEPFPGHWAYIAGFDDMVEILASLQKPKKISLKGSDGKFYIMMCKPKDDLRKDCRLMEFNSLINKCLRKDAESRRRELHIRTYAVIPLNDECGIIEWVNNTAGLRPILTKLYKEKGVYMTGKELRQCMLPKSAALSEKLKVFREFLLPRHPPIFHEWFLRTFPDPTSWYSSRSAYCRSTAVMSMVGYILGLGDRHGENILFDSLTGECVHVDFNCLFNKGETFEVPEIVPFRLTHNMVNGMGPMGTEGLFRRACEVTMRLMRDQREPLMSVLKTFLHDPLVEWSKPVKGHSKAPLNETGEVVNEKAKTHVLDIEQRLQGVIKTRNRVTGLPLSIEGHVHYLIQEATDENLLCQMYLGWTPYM

Row | Compound | Ki
1 | CN(C)CC(=O)N1CC=C(c2cnc(N)c(-c3nnc(-c4ccccc4)o3)n2)CC1 [Compound I-134, 1-(4-(5-amino-6-(5-phenyl-1,3,4-oxadiazol-2-yl)pyrazin-2-yl)-5,6-dihydropyridin-1(2H)-yl)-2-(dimethylamino)ethanone] | 100 to 1000 nM
2 | CC#CCOC(=O)N1CCN(c2cnc(N)c(C(=O)Nc3ccccn3)n2)CC1 [Compound I-252, but-2-ynyl 4-(5-amino-6-(pyridin-2-ylcarbamoyl)pyrazin-2-yl)piperazine-1-carboxylate] | 1000 to 10000 nM
3 | CCCS(=O)(=O)N1CC=C(c2cnc(N)c(-c3nc4ccccc4[nH]3)n2)CC1 [Compound I-291, 3-(1H-benzimidazol-2-yl)-5-(1-propylsulfonyl-3,6-dihydro-2H-pyridin-4-yl)pyrazin-2-amine] | < 100 nM
4 | Nc1ncc(C2=CCN(S(=O)(=O)c3ccccc3)CC2)nc1-c1nc2ccccc2[nH]1 [Compound I-210, 3-(1H-benzo[d]imidazol-2-yl)-5-(1-(phenylsulfonyl)-1,2,3,6-tetrahydropyridin-4-yl)pyrazin-2-amine] | < 100 nM
5 | COCC(=O)N1CCN(c2cnc(N)c(-c3nnc(-c4ccccc4)o3)n2)CC1 [Compound I-179, 1-(4-(5-amino-6-(5-phenyl-1,3,4-oxadiazol-2-yl)pyrazin-2-yl)piperazin-1-yl)-2-methoxyethanone] | 100 to 1000 nM
6 | CCS(=O)(=O)N1CCN(c2cnc(N)c(-c3cc(-c4ccccc4)no3)n2)CC1 [Compound I-162, 5-(4-(ethylsulfonyl)piperazin-1-yl)-3-(3-phenylisoxazol-5-yl)pyrazin-2-amine] | 100 to 1000 nM
7 | Nc1ncc(N2CCN(S(=O)(=O)c3ccsc3)CC2)nc1C(=O)Nc1ccccn1 [Compound I-117, 3-amino-N-(pyridin-2-yl)-6-(4-(thiophen-3-ylsulfonyl)piperazin-1-yl)pyrazine-2-carboxamide] | 100 to 1000 nM
8 | CCNC(=O)C1CC1c1cnc(N)c(-c2nnc(-c3ccc(CNC)cc3)o2)n1 (stereo not drawn) [Compound I-375, 2-[5-Amino-6-[5-[4-(methylaminomethyl)phenyl]-1,3,4-oxadiazol-2-yl]pyrazin-2-yl]-N-ethyl-cyclopropanecarboxamide] | 100 to 1000 nM
9 | CS(=O)(=O)CCN1CCN(c2cnc(N)c(-c3nnc(-c4ccccc4)o3)n2)CC1 [Compound I-296, 5-[4-(2-methylsulfonylethyl)piperazin-1-yl]-3-(5-phenyl-1,3,4-oxadiazol-2-yl)pyrazin-2-amine] | 100 to 1000 nM
10 | Nc1ncc(N2CCN(S(=O)(=O)Cc3ccccc3)CC2)nc1-c1nnc(-c2ccccc2)o1 [Compound I-99, 5-(4-(benzylsulfonyl)piperazin-1-yl)-3-(5-phenyl-1,3,4-oxadiazol-2-yl)pyrazin-2-amine] | 100 to 1000 nM
11 | Nc1ncc(N2CC[C@H](NS(=O)(=O)c3ccccc3)C2)nc1-c1nc2ccccc2[nH]1 [Compound I-107, (S)-N-(1-(5-amino-6-(1H-benzo[d]imidazol-2-yl)pyrazin-2-yl)pyrrolidin-3-yl)benzenesulfonamide] | 100 to 1000 nM
12 | Cc1ccc2nc(-c3nc(N4CCC(C(N)=O)CC4)cnc3N)[nH]c2c1 [Compound I-14, 1-(5-amino-6-(6-methyl-1H-benzo[d]imidazol-2-yl)pyrazin-2-yl)piperidine-4-carboxamide] | 1000 to 10000 nM
13 | Nc1ncc(N2CCN(S(=O)(=O)c3ccoc3)CC2)nc1-c1nc2ccccc2[nH]1 [Compound I-269, 3-(1H-benzo[d]imidazol-2-yl)-5-(4-(furan-3-ylsulfonyl)piperazin-1-yl)pyrazin-2-amine] | 100 to 1000 nM
14 | CNC(=O)[C@@H]1CCN(c2cnc(N)c(-c3nc4ccc(C)cc4[nH]3)n2)C1 [Compound I-77, (R)-1-(5-amino-6-(6-methyl-1H-benzo[d]imidazol-2-yl)pyrazin-2-yl)-N-methylpyrrolidine-3-carboxamide] | 1000 to 10000 nM
15 | Nc1ncc(N2CCN(C(=O)C3CCOCC3)CC2)nc1C(=O)Nc1ccccn1 [Compound I-230, 3-amino-N-(pyridin-2-yl)-6-(4-(tetrahydro-2H-pyran-4-carbonyl)piperazin-1-yl)pyrazine-2-carboxamide] | 1000 to 10000 nM
16 | Cn1cnc(S(=O)(=O)N2CC=C(c3cnc(N)c(-c4nc5ccccc5[nH]4)n3)CC2)c1 [Compound I-94, 3-(1H-benzo[d]imidazol-2-yl)-5-(1-(1-methyl-1H-imidazol-4-ylsulfonyl)-1,2,3,6-tetrahydropyridin-4-yl)pyrazin-2-amine] | < 100 nM
17 | CCOC(=O)N1CCN(c2cnc(N)c(-c3nc4ccccc4[nH]3)n2)CC1 [Compound I-271, ethyl 4-(5-amino-6-(1H-benzo[d]imidazol-2-yl)pyrazin-2-yl)piperazine-1-carboxylate] | 1000 to 10000 nM

Row | Compound | Ki
18 | CCS(=O)(=O)N1CC2CN(c3cnc(N)c(-c4nc5ccccc5[nH]4)n3)CC2C1 (stereo not drawn) [Compound I-295, 3-(1H-benzimidazol-2-yl)-5-(2-ethylsulfonyl-1,3,3a,4,6,6a-hexahydropyrrolo[3,4-c]pyrrol-5-yl)pyrazin-2-amine] | 1000 to 10000 nM
19 | Nc1ncc(C2=CCN(S(=O)(=O)c3ccoc3)CC2)nc1-c1nnc(-c2ccccc2)o1 [Compound I-123, 5-(1-(furan-3-ylsulfonyl)-1,2,3,6-tetrahydropyridin-4-yl)-3-(5-phenyl-1,3,4-oxadiazol-2-yl)pyrazin-2-amine] | < 100 nM
20 | Nc1ncc(C2=CCN(C(=O)C3CCCC3)CC2)nc1-c1nc2ccccc2[nH]1 [Compound I-206, (4-(5-amino-6-(1H-benzo[d]imidazol-2-yl)pyrazin-2-yl)-5,6-dihydropyridin-1(2H)-yl)(cyclopentyl)methanone] | 100 to 1000 nM
21 | COCCOC(=O)N1CCN(c2cnc(N)c(C(=O)Nc3ccccn3)n2)CC1 [Compound I-237, 2-methoxyethyl 4-(5-amino-6-(pyridin-2-ylcarbamoyl)pyrazin-2-yl)piperazine-1-carboxylate] | 1000 to 10000 nM
22 | Nc1ncc(N2CCN(C(=O)c3ccccc3)CC2)nc1C(=O)Nc1ccccn1 [Compound I-109, 3-amino-6-(4-(phenylcarbonyl)piperazin-1-yl)-N-(pyridin-2-yl)pyrazine-2-carboxamide] | 1000 to 10000 nM
23 | Nc1ncc(N2CCN(C(=O)c3ccccn3)CC2)nc1C(=O)Nc1ccccn1 [Compound I-148, 3-amino-N-(pyridin-2-yl)-6-(4-(pyridine-2-carbonyl)piperazin-1-yl)pyrazine-2-carboxamide] | 1000 to 10000 nM
24 | CN(C)S(=O)(=O)N1CC=C(c2cnc(N)c(-c3nnc(-c4ccccc4)o3)n2)CC1 [Compound I-84, 4-(5-amino-6-(5-phenyl-1,3,4-oxadiazol-2-yl)pyrazin-2-yl)-N,N-dimethyl-5,6-dihydropyridine-1(2H)-sulfonamide] | < 100 nM
25 | CCS(=O)(=O)N1CC2CN(c3cnc(N)c(-c4nnc(-c5ccc(CNC)cc5)o4)n3)CC2C1 (stereo not drawn) [Compound I-332, 5-(2-Ethylsulfonyl-1,3,3a,4,6,6a-hexahydropyrrolo[3,4-c]pyrrol-5-yl)-3-[5-[4-(methylaminomethyl)phenyl]-1,3,4-oxadiazol-2-yl]pyrazin-2-amine] | 1000 to 10000 nM
26 | CC(C)C(=O)N1CCN(c2cnc(N)c(-c3nnc(-c4ccccc4)o3)n2)CC1 [Compound I-190, 1-(4-(5-amino-6-(5-phenyl-1,3,4-oxadiazol-2-yl)pyrazin-2-yl)piperazin-1-yl)-2-methylpropan-1-one] | 100 to 1000 nM
27 | Nc1ncc(N2CCN(C(=O)c3ccccn3)CC2)nc1-c1nnc(-c2ccccc2)o1 [Compound I-187, (4-(5-amino-6-(5-phenyl-1,3,4-oxadiazol-2-yl)pyrazin-2-yl)piperazin-1-yl)(pyridin-2-yl)methanone] | 100 to 1000 nM
28 | NCCS(=O)(=O)N1CC=C(c2cnc(N)c(-c3nc4ccccc4[nH]3)n2)CC1 [Compound I-313, 5-(1-(2-Aminoethylsulfonyl)-1,2,3,6-tetrahydropyridin-4-yl)-3-(1H-benzo[d]imidazol-2-yl)pyrazin-2-amine] | 100 to 1000 nM
29 | CCOC(=O)C1CC1c1cnc(N)c(-c2nnc(-c3ccccc3)o2)n1 (stereo not drawn) [Compound I-337, Ethyl 2-(5-amino-6-(5-phenyl-1,3,4-oxadiazol-2-yl)pyrazin-2-yl)cyclopropanecarboxylate] | 100 to 1000 nM
30 | CCS(=O)(=O)N1CCN(c2cnc(N)c(-c3ncc(-c4ccccc4)o3)n2)CC1 [Compound I-36, 5-(4-(ethylsulfonyl)piperazin-1-yl)-3-(5-phenyloxazol-2-yl)pyrazin-2-amine] | 100 to 1000 nM
31 | CC(C)(C)C(=O)N1CCN(c2cnc(N)c(-c3nnc(-c4ccccc4)o3)n2)CC1 [Compound I-198, 1-(4-(5-amino-6-(5-phenyl-1,3,4-oxadiazol-2-yl)pyrazin-2-yl)piperazin-1-yl)-2,2-dimethylpropan-1-one] | 100 to 1000 nM
32 | CCS(=O)(=O)N1CC=C(c2cnc(N)c(C(=O)Nc3n[nH]c4ccccc34)n2)CC1 [Compound I-169, 3-amino-6-(1-(ethylsulfonyl)-1,2,3,6-tetrahydropyridin-4-yl)-N-(1H-indazol-3-yl)pyrazine-2-carboxamide] | < 100 nM
33 | Nc1ncc(N2CCN(S(=O)(=O)C3CC3)CC2)nc1C(=O)Nc1ccccn1 [Compound I-118, 3-amino-6-(4-(cyclopropylsulfonyl)piperazin-1-yl)-N-(pyridin-2-yl)pyrazine-2-carboxamide] | 100 to 1000 nM
